Laboratory results taken from US20240115672A1, “TREATMENT OF AN IOP CONDITION” (THE RESEARCH FOUNDATION FOR THE STATE UNIVERSITY OF NEW YORK, priority 2021, published 2024).

Key:
[1] = system: Mmp-2, Mmp-9, Mmp-13 mRNA in angle ring tissues; experiment: Mmp expression in TA and protein treated C57BL/6J eyes (Example 13); assay type: in vivo, mouse; conditions: TA + protein; compared to BSA treated controls; p<0.0001
[2] = intravitreal; toxicity attributed to arginine in the commercial preparations; cited from earlier work
[3] = system: MMP-1, MMP-2, MMP-9, MMP-13, PLAT, PAI-1 mRNA; experiment: qRT-PCR gene expression in sheep TM and ciliary processes after tPA; assay type: in vivo
From the text: Methods. Tissue Collection and Isolation of RNA. After animals were euthanized, eyes were immediately enucleated. Eyes were then opened anterior to the equator using a razor blade. The lens was removed from the anterior part, and the tissue was immersed in RNA stabilizing agent (RNAlater; Ambion, Carlsbad, CA) and placed at […] for transportation to the United States. Upon arrival in the United States, TM and ciliary processes (CP) were dissected on ice in the presence of RNA stabilizing agent as described previously. Dissected tissue was homogenized, and total RNA was extracted using TRIzol reagent (Gibco. Carlsbad, CA). Briefly, the tissue was homogenized in TRIzol, and chloroform was added to separate proteins from RNA. After centrifugation, the RNA-containing supernatant was aspirated. The RNA was precipitated with isopropanol, washed with 75% ethanol, treated with DNase, and column purified using a commercial kit (RNAeasy Mini Kit; Qiagen, Valencia, CA) in accordance with the manufacturer's instructions. RNA concentrations were determined with a spectrophotometer (Nanodrop; Thermo Scientific, Wilmington, DE) and the 260:280-nm absorbance ratio was calculated to determine RNA purity.
Quantitative Real-Time PCR (qRT-PCR) The RNA samples were reverse transcribed with random hexamers to cDNA using a reverse transcription kit (Quantitect; Qiagen) in accordance with the manufacturer's instructions. Quantitative RT-PCR was performed using a commercial kit (SYBR Green RT-PCR Reagents Kit; Applied Biosystems, Carlsbad, CA) in an ABI PRISM 7900HT sequence detector (Applied Biosystems). The sheep endogenous mRNA expression of matrix metalloproteinase-1 (MMP-1), matrix metalloproteinase-2 (MMP-2), matrix metalloproteinase-9 (MMP-9), matrix metalloproteinase-13 (MMP-13). and plasminogen activator tissue (PLAT) in the TM were investigated. Plasminogen activator inhibitor 1 (PA1-1) mRNA expression was measured in both TM and ciliary processes tissues. Relative quantification of gene expression was performed using the standard curve method. Mean threshold cycle (Ct) of the samples was compared among the groups by using the Ct. of 18S as an internal control. The DCt was calculated as the difference in Ct values derived from the target gene and the 18S gene. The DDCt was calculated as DCt of the normalized assayed genes in the treated samples minus DCt of normalized assayed genes in the naive control samples. Relative expression was calculated by the 2exp DD Ct formula.

sheep = experiment: Sheep given tPA or arginine concurrently with prednisolone (Example 3 Protocol 2, Example 4); assay type: in vivo; conditions: 11 days
Method: Protocol 2. In a second set of experiments, arginine was added to the BSS vehicle administered to the left eye to control for the relatively high concentration of the amino acid in the commercially available tPA lyophilisate. In these experiments all right eyes received 0.1 mg tPA, which concomitantly delivered 4.23 mg of arginine into the vitreous, and the left eye received this same amount of arginine, absent the tPA. On Day 1, prednisolone treatments were also begun simultaneously on both eyes.
Methods. In this experiment, the inventor sought to detect the effects of tPA treatment on prevention of steroid-induced IOP elevation. In 4 sheep tPA was injected in one eye (100 μg) and they were started on prednisolone acetate three times a day in both eyes. Animals were monitored for 11 days on continuous treatment.

tPA: recombinant human tissue plasminogen activator (ACTILYSE; Boehringer Ingelheim), enzymatically active
Mmp-2 expression [1]: significant upregulation
doses with reported retinal toxicity [2]: 50-100 lag
MMP1 expression ([3]; sheep, after tPA): up-regulates
MMP2 expression ([3]; sheep, after tPA): up-regulates
MMP9 expression ([3]; sheep, after tPA): up-regulates
MMP13 expression ([3]; sheep, after tPA): up-regulates
PAI-1 expression ([3]; trabecular meshwork (TM) and ciliary processes): up-regulating
effect on steroid-induced IOP elevation (sheep; 100 μg in one eye concurrent with prednisolone acetate three times a day): prevented IOP elevation
ocular findings (sheep; 100 μg tPA): Transient injection and corneal clouding was observed in some eyes
